Measured values published in patent publication US20140296479A1, “D-APTIDE AND RETRO-INVERSO APTIDE WITH MAINTAINED TARGET AFFINITY AND IMPROVED STABILITY” (GWANGJU INSTITUTE OF SCIENCE AND TECHNOLOGY, priority 2011, published 2014).
Where a SMILES comes first, the peptide text is derived from it. Where no end group is shown, it is not given here. [ ]: non-standard residue; d: D form.

How the values were obtained:
[1] = molecular target: T1, fibronectin EDB (Homo sapiens, UniProt P02751); assay: BIAcore X (SPR) affinity for fibronectin EDB; assay type: binding; settings: biotin-EDB on SA chip; for Kd / koff (dissociation rate constant): PBS pH 7.4; for kon: PBS pH 7.4, read-out: ka
T1 construct: Biotin-EDB of 2000 RU was immobilized on streptavidin SA chip
Protocol: (§1) To investigate whether the activity is maintained where Aptamer-Like Peptides specifically binding to fibronectin EDB, i.e., L-Aptide1EDB are converted into D- and Retro inverso (RI)-form, their affinity to a target was measured. Firstly, 3 peptides, L-Aptide1EDB ([…], all L-amino acids, SEQ ID NO:21), D-Aptide1EDB ([…], all D-amino acids, SEQ ID NO:21) and RI-Aptide1EDB ([…], all D-amino acids), were synthesized by Anigen Inc. (Korea). Their affinity for a target was determined using BIAcore X (Biacore AB, Uppsala, Sweden). Biotin-EDB of 2000 RU was immobilized on streptavidin SA chip (Biacore). A PBS (pH 7.4) was used as a running buffer, a flow rate was 30 μl/min, and the affinity was determined with BIAevaluation software (Biacore AB, Uppsala, Sweden) after measuring kinetics of various concentrations.

[2] = tested on: trypsin; assay: Degradation of Aptides by protease, SDS-PAGE; assay type: in vitro ADME; settings: 10 unit trypsin, 100 μg peptide, FIG. 3
Protocol: (§2) Degradation levels of the L-Aptide1EDB and D-Aptide1EDB were measured using proteases, α-chymotrypsin and trypsin (Sigma). The proteases of 10 unit were added to 100 μg peptides, followed by the reaction for 30, 60, 120 and 720 min, and the reaction was blocked by adding SDS sample buffer (Invitrogen). Subsequently, results for the peptide degradation were obtained from SDS-PAGE.

[3] = molecular target: T2, α-chymotrypsin (Bos taurus, UniProt P00766); assay: Degradation of Aptides by protease, SDS-PAGE; assay type: in vitro ADME; settings: 10 unit α-chymotrypsin, 100 μg peptide, FIG. 3
T2 construct: purchased Sigma
Protocol: as §2

[4] = molecular target: T3, VEGF121 (Homo sapiens, UniProt P15692); assay: BIAcore X (SPR) affinity for VEGF; assay type: binding; settings: VEGF121 on CM5 chip; for kd: PBS pH 7.4; for kon: PBS pH 7.4, read-out: ka
T3 sequence (P15692 27-147 isoform P15692-9): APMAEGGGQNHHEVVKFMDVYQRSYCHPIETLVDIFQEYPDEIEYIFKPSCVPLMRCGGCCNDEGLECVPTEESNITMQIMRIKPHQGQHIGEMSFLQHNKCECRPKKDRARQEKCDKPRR
Protocol: To investigate whether the activity is maintained where Aptamer-Like Peptides specifically binding to VEGF (Vascular endothelial growth factor), i.e., L-Aptide1VEGF are converted into D- and Retro inverso (RI)-form, their affinity to a target was measured. Firstly, 3 peptides, L-Aptide1VEGF ([…], all L-amino acids, SEQ ID NO:23), D-Aptide1VEGF ([…], all D-amino acids, SEQ ID NO:23) and RI-Aptide1VEGF ([…], all D-amino acids), were synthesized by Anigen Inc. (Korea). Their affinity for a target was determined using BIAcore X (Biacore AB, Uppsala, Sweden). VEGF121 of 3000 RU was immobilized on CM5 chip (Biacore). A PBS (pH 7.4) was used as a running buffer, a flow rate was 30 μl/min, and the affinity was determined with BIAevaluation software (Biacore AB, Uppsala, Sweden) after measuring kinetics of various concentrations.

[5] = molecular target: T4, VEGF (Homo sapiens, UniProt P15692); assay: Inhibition of VEGF activity (HUVEC proliferation assay); assay type: cell-based; settings: VEGF165, 72 hours
T4 construct: purchased R&D Systems
T4 sequence (P15692 27-191 isoform P15692-4): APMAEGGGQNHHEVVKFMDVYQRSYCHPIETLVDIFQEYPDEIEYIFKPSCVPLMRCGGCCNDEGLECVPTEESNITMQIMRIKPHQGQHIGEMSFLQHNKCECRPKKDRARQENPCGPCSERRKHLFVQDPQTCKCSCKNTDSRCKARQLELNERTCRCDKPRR
Protocol: HUVECs (Human Umbilical Vein Endothelial Cells, ATCC) were starved in M199 medium (Gibco) supplemented with 1% FBS, and then they were attached to a 96-well plate at 5000 cell/well. After 12 hours, the cells were treated with medium containing both various concentrations of L-Aptide1VEGF and D-Aptide1VEGF, and VEGF165 (R&D Systems). After 72 hours, the growth inhibition rate of HUVECs by the L-AptideVEGF and D-AptideVEGF was determined using EZ-cytox cell viability assay kit (Daeil Labservice, Korea).

[6] = molecular target: T5, fibronectin EDB (UniProt P02751 1266-1356, limits assumed, biotin (site not stated)); assay: SPR, BIAcore X; biotin-EDB on SA chip, peptide as analyte
T5 construct: domain: EDB; Biotin-EDB, 2000 RU, immobilised on a streptavidin SA chip; also called Biotin-EDB; fibronectin extra domain B (ED-B)
Protocol: as §1, with “(Biacore).” for “(Biacore). A PBS (pH 7.4) was used as a running buffer, a flow rate was 30 μl/min, and the affinity was determined with BIAevaluation software (Biacore AB, Uppsala, Sweden) after measuring kinetics of various concentrations.”

T5 sequence (P02751 1266-1356 limits assumed): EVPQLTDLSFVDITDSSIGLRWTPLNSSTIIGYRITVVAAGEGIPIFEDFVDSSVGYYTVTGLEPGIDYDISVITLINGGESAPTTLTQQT

CC[C@@H](C)[C@@H](NC(=O)CNC(=O)[C@@H](CCCCN)NC(=O)[C@@H](Cc1c[nH]c2ccccc12)NC(=O)[C@H](NC(=O)[C@@H](Cc1c[nH]c2ccccc12)NC(=O)[C@@H](CCCCN)NC(=O)CNC(=O)[C@@H](CC(N)=O)NC(=O)[C@@H](CCC(=O)O)NC(=O)[C@@H](Cc1c[nH]c2ccccc12)NC(=O)[C@H](NC(=O)[C@@H](Cc1c[nH]c2ccccc12)NC(=O)[C@@H](CO)NC(=O)CNC(=O)[C@H](NC(=O)[C@@H](C)NC(=O)[C@@H](CO)NC(=O)[C@@H](CO)NC(=O)[C@@H](CS)NC(=O)[C@H](N)Cc1c[nH]cn1)C(C)C)[C@H](C)O)[C@H](C)O)C(=O)N[C@@H](C(=O)N[C@H](CCCNC(=N)N)C(=O)N[C@H](CC(C)C)C(=O)N[C@H](CCC(=O)O)C(=O)N[C@H](CCC(N)=O)C(=O)O)[C@H](C)CC [D-Aptide1EDB] (H-[dH][dC][dS][dS][dA][dV]G[dS][dW][dT][dW][dE][dN]G[dK][dW][dT][dW][dK]G[dI][dI][dR][dL][dE][dQ]-OH; N-terminus and C-terminus assumed)
Kd [1]: 58 nM
koff (dissociation rate constant) [1]: 0.0009 s⁻¹
kon [1]: 15000 M⁻¹ s⁻¹
time to degradation by protease [2]: > 360 min
time to degradation by protease [3]: > 360 min

C[C@H](O)[C@@H](NC(=O)[C@@H](Cc1c[nH]c2ccccc12)NC(=O)[C@@H](CCCCN)NC(=O)CNC(=O)[C@@H](CC(N)=O)NC(=O)[C@@H](CCC(=O)O)NC(=O)[C@@H](Cc1c[nH]c2ccccc12)NC(=O)[C@H](NC(=O)[C@@H](Cc1c[nH]c2ccccc12)NC(=O)[C@@H](CO)NC(=O)CNC(=O)[C@@H](CCC(N)=O)NC(=O)[C@@H](Cc1ccccc1)NC(=O)[C@@H](Cc1ccccc1)NC(=O)[C@@H](CC(N)=O)NC(=O)[C@@H](C)NC(=O)[C@H](N)Cc1c[nH]cn1)[C@H](C)O)C(=O)N[C@H](Cc1c[nH]c2ccccc12)C(=O)N[C@H](CCCCN)C(=O)NCC(=O)N[C@H](Cc1c[nH]c2ccccc12)C(=O)N[C@H](CCCCN)C(=O)N[C@H](Cc1ccc(O)cc1)C(=O)N[C@H](CC(N)=O)C(=O)N[C@H](CCC(N)=O)C(=O)N[C@H](CO)C(=O)O [D-Aptide1VEGF] (H-[dH][dA][dN][dF][dF][dQ]G[dS][dW][dT][dW][dE][dN]G[dK][dW][dT][dW][dK]G[dW][dK][dY][dN][dQ][dS]-OH; N-terminus and C-terminus assumed)
kd [4]: 0.0066 s⁻¹
Kd ([4]; PBS pH 7.4, read-out: Kd): 50 nM
kon [4]: 130000 M⁻¹ s⁻¹
inhibition of VEGF activity ([5]; at 10 μM, D-form versus L-form): more inhibited VEGF activity than L-form
inhibition of VEGF activity ([5]; at 20 μM): completely inhibited VEGF activity

CC[C@H](C)[C@H](NC(=O)CNC(=O)[C@H](CCCCN)NC(=O)[C@H](Cc1c[nH]c2ccccc12)NC(=O)[C@@H](NC(=O)[C@H](Cc1c[nH]c2ccccc12)NC(=O)[C@H](CCCCN)NC(=O)CNC(=O)[C@H](CC(N)=O)NC(=O)[C@H](CCC(=O)O)NC(=O)[C@H](Cc1c[nH]c2ccccc12)NC(=O)[C@@H](NC(=O)[C@H](Cc1c[nH]c2ccccc12)NC(=O)[C@H](CO)NC(=O)CNC(=O)[C@@H](NC(=O)[C@H](C)NC(=O)[C@H](CO)NC(=O)[C@H](CO)NC(=O)[C@H](CS)NC(=O)[C@@H](N)Cc1c[nH]cn1)C(C)C)[C@@H](C)O)[C@@H](C)O)C(=O)N[C@H](C(=O)N[C@@H](CCCNC(=N)N)C(=O)N[C@@H](CC(C)C)C(=O)N[C@@H](CCC(=O)O)C(=O)N[C@@H](CCC(N)=O)C(=O)O)[C@@H](C)CC [L-Aptide1EDB] (H-HCSSAVGSWTWENGKWTWKGIIRLEQ-OH; N-terminus and C-terminus assumed)
Kd [1]: 65 nM
koff (dissociation rate constant) [1]: 0.00095 s⁻¹
kon [1]: 10000 M⁻¹ s⁻¹
time to degradation by protease [2]: ≤ 30 min
time to degradation by protease [3]: ≤ 30 min

C[C@H](NC(=O)[C@@H](N)Cc1c[nH]cn1)C(=O)N[C@@H](CC(N)=O)C(=O)N[C@@H](Cc1ccccc1)C(=O)N[C@@H](Cc1ccccc1)C(=O)N[C@@H](CCC(N)=O)C(=O)NCC(=O)N[C@@H](CO)C(=O)N[C@@H](Cc1c[nH]c2ccccc12)C(=O)N[C@H](C(=O)N[C@@H](Cc1c[nH]c2ccccc12)C(=O)N[C@@H](CCC(=O)O)C(=O)N[C@@H](CC(N)=O)C(=O)NCC(=O)N[C@@H](CCCCN)C(=O)N[C@@H](Cc1c[nH]c2ccccc12)C(=O)N[C@H](C(=O)N[C@@H](Cc1c[nH]c2ccccc12)C(=O)N[C@@H](CCCCN)C(=O)NCC(=O)N[C@@H](Cc1c[nH]c2ccccc12)C(=O)N[C@@H](CCCCN)C(=O)N[C@@H](Cc1ccc(O)cc1)C(=O)N[C@@H](CC(N)=O)C(=O)N[C@@H](CCC(N)=O)C(=O)N[C@@H](CO)C(=O)O)[C@@H](C)O)[C@@H](C)O [L-Aptide1VEGF] (H-HANFFQGSWTWENGKWTWKGWKYNQS-OH; N-terminus and C-terminus assumed)
kd [4]: 0.01 s⁻¹
kon [4]: 350000 M⁻¹ s⁻¹
inhibition of VEGF activity ([5]; at 20 μM): completely inhibited VEGF activity

[dQ][dE][dL][dR][dI][dI]G[dK][dW][dT][dW][dK]G[dN][dE][dW][dT][dW][dS]G[dV][dA][dS][dS][dC][dH] (designed binder) [RI-Aptide1EDB]
koff [6]: 0.0011 s⁻¹

[dH][dC][dS][dS][dA][dV]G[dS][dW][dT][dW][dE][dN]G[dK][dW][dT][dW][dK]G[dI][dI][dR][dL][dE][dQ] (designed binder) [D-Aptide1EDB]
koff [6]: 0.0009 s⁻¹

B1: L-Aptide1EDB (designed binder)
peptide: HCSSAVGSWTWENGKWTWKGIIRLEQ
notes: Synthetic 26-mer, all L-amino acids; also called Aptide1EDB (L-form)
koff [6]: 0.00095 s⁻¹
